Assay results: patent US10322097B2, “Treatment of subjects with multidrug-resistant cancer” (priority 2015, dated 2019)

Tests used:
[1] = test system: MDA-MB-231 pcDNA breast cancer cells; test: MTT cytotoxicity assay, MDA-MB-231 pcDNA; assay type: cell-based; conditions: Homo sapiens, MDA-MB-231, 72 h, 3 days
Procedure: (§1) Cell cultures and cytotoxicity assays have been used. Celastrol was dissolved in DMSO at a final concentration of 100 mmol/L and stored at −20° C. Cytotoxicity was assessed using the 3-(4,5-dimethylthiazol-2-yl)-2,5-diphenyltetrazolium bromide assay. 4000 cells from HEK293 and HEK293/ABCB5 kidney cancer cells or MDA-MB-231 pcDNA and MDA-MB-231/BCRP breast cancer cells were seeded on 96-well plates per well. After overnight pre-incubation, the cells were exposed to different concentrations of celastrol (0.1-10 μmol/L) for 3 days. Subsequently, 10 μL of MTT reagents were added to each well and incubated at 37° C. for 4 hours followed by the addition of 100 μL solubilization buffer (10% SDS in 0.01 mol/L HCl) and overnight incubation. Absorbance at 585 nm was determined from each well the next day. The percentage of cell viability was calculated using the following formula: Cell viability (%)=Cells number treated/Cells number DMSO control×100. Data were obtained from three independent experiments.

[2] = test system: HCT116 p53+/+ colon cancer cells; test: MTT cytotoxicity assay, HCT116 p53+/+; assay type: cell-based; conditions: Homo sapiens, HCT-116, 72 h, read-out: IC50 HCT116 p53+/+ colon cancer cells
Procedure: (§2) Cell cultures and cytotoxicity assays have been used. Celastrol was dissolved in DMSO at a final concentration of 100 mmol/L and stored at −20° C. Cytotoxicity was assessed using the 3-(4,5-dimethylthiazol-2-yl)-2,5-diphenyltetrazolium bromide assay. 4000 cells from HCT116 p53^+/+ or p53^−/− colon cancer cells and DLD-1 Bax-Bak^+/+ or Bax-Bak^−/− colon cancer cells were seeded on 96-well plates per well. […] Subsequently, 10 μL of MTT reagents were added to each well and incubated at 37° C. for 4 hours followed by the addition of 100 μL solubilization buffer (10% SDS in 0.01 mol/L HCl) and overnight incubation. […] The percentage of cell viability was calculated using the following formula: Cell viability (%)=Cells number treated/Cells number DMSO control×100. Data were obtained from three independent experiments.

[3] = test system: DLD-1 Bax-Bak-/- colon cancer cells; test: MTT cytotoxicity assay, DLD-1 Bax-Bak-/-; assay type: cell-based
Procedure: as §2

[4] = test system: A549 (Lung) taxol sensitive cancer cells; test: MTT cytotoxicity assay, A549 taxol sensitive; assay type: cell-based; conditions: Homo sapiens, A549, 72 h, read-out: IC50 A549 (Lung) (Taxol sensitive)
Procedure: as §1, with “from A549 (lung), A2780 (ovary), HCT-8 (colon)” for “from HEK293”, “and MCF-7 (breast)” for “and HEK293/ABCB5 kidney cancer cells or MDA-MB-231 pcDNA and MDA-MB-231/BCRP breast”, “celastrol (0.039-100” for “celastrol (0.1-10”, “μmol/L) or taxol” for “μmol/L)”, “reagents was” for “reagents were”

[5] = test system: A2780 (Ovary) taxol sensitive cancer cells; test: MTT cytotoxicity assay, A2780 taxol sensitive; assay type: cell-based; conditions: Homo sapiens, A2780, 72 h, read-out: IC50 A2780 (Ovary) (Taxol sensitive)
Procedure: as §1, with “from A549 (lung), A2780 (ovary), HCT-8 (colon)” for “from HEK293”, “and MCF-7 (breast)” for “and HEK293/ABCB5 kidney cancer cells or MDA-MB-231 pcDNA and MDA-MB-231/BCRP breast”, “celastrol (0.039-100” for “celastrol (0.1-10”, “μmol/L) or taxol” for “μmol/L)”, “reagents was” for “reagents were”

[6] = test system: HCT-8 (Colon) taxol sensitive cancer cells; test: MTT cytotoxicity assay, HCT-8 taxol sensitive; assay type: cell-based; conditions: Homo sapiens, HCT-8, 72 h, read-out: IC50 HCT-8 (Colon) (Taxol sensitive)
Procedure: as §1, with “from A549 (lung), A2780 (ovary), HCT-8 (colon)” for “from HEK293”, “and MCF-7 (breast)” for “and HEK293/ABCB5 kidney cancer cells or MDA-MB-231 pcDNA and MDA-MB-231/BCRP breast”, “celastrol (0.039-100” for “celastrol (0.1-10”, “μmol/L) or taxol” for “μmol/L)”, “reagents was” for “reagents were”

[7] = test system: MCF-7 (Breast) taxol sensitive cancer cells; test: MTT cytotoxicity assay, MCF-7 taxol sensitive; assay type: cell-based; conditions: Homo sapiens, MCF7, 72 h, read-out: IC50 MCF-7 (Breast) (Taxol sensitive)
Procedure: as §1, with “from A549 (lung), A2780 (ovary), HCT-8 (colon)” for “from HEK293”, “and MCF-7 (breast)” for “and HEK293/ABCB5 kidney cancer cells or MDA-MB-231 pcDNA and MDA-MB-231/BCRP breast”, “celastrol (0.039-100” for “celastrol (0.1-10”, “μmol/L) or taxol” for “μmol/L)”, “reagents was” for “reagents were”

[8] = test system: MCF-7 (Breast) doxorubicin sensitive cancer cells; test: MTT cytotoxicity assay, MCF-7 doxorubicin sensitive; assay type: cell-based; conditions: Homo sapiens, MCF7, 72 h, read-out: IC50 MCF-7 (Breast) (Doxorubicin sensitive)
Procedure: as §1, with “MCF-7 doxorubicin sensitive/resistant breast” for “HEK293 and HEK293/ABCB5 kidney”, “CEM doxorubicin sensitive/resistant leukemia” for “MDA-MB-231 pcDNA and MDA-MB-231/BCRP breast cancer”, “(0.039-100” for “(0.1-10”, “μmol/L) or doxorubicin” for “μmol/L)”

[9] = test system: A2780 (Ovary) cisplatin resistant cancer cells; test: MTT cytotoxicity assay, A2780 cisplatin resistant; assay type: cell-based, human
Procedure: as §1, with “A2780 cisplatin sensitive/resistant ovarian” for “HEK293 and HEK293/ABCB5 kidney”, “SGC-7901 cisplatin sensitive/resistant gastric” for “MDA-MB-231 pcDNA and MDA-MB-231/BCRP breast”, “(0.039-100” for “(0.1-10”, “μmol/L) or cisplatin” for “μmol/L)”

[10] = test system: SGC-7901 (Gastric) cisplatin sensitive cancer cells; test: MTT cytotoxicity assay, SGC-7901 cisplatin sensitive; assay type: cell-based, human; conditions: Homo sapiens, SGC-7901, 72 h, read-out: IC50 SGC-7901 (Gastric) (Cisplatin sensitive)
Procedure: as §1, with “A2780 cisplatin sensitive/resistant ovarian” for “HEK293 and HEK293/ABCB5 kidney”, “SGC-7901 cisplatin sensitive/resistant gastric” for “MDA-MB-231 pcDNA and MDA-MB-231/BCRP breast”, “(0.039-100” for “(0.1-10”, “μmol/L) or cisplatin” for “μmol/L)”

CC1=C(O)C(=O)C=C2C1=CC=C1[C@@]2(C)CC[C@@]2(C)[C@@H]3C[C@](C)(C(=O)O)CC[C@]3(C)CC[C@]12C [Celastrol, celastrol]
IC50 [1]: 4830 nM
IC50 [2]: 831 nM
IC50 ([3]; Homo sapiens, DLD-1, 72 h, read-out: IC50 DLD-1 Bax-Bak-/- colon cancer cells): 184 nM
Resistant Factor ([3]; IC50 DLD-1 Bax-Bak-/- divided by IC50 DLD-1 Bax-Bak+/+): 0.32
IC50 [4]: 2400 nM
IC50 [5]: 902 nM
IC50 [6]: 937 nM
IC50 [7]: 1120 nM
IC50 [8]: 1130 nM
Resistant Factor ([9]; A2780 cisplatin resistant versus cisplatin sensitive): 1.03
IC50 ([9]; Homo sapiens, A2780, 72 h, read-out: IC50 A2780 (Ovary) (Cisplatin resistant)): 543 nM
IC50 [10]: 1940 nM
